Data on ten compounds can be found in patent publication US20260042764A1, “COMPOSITIONS AND METHODS FOR INHIBITION OF KRAS” (TheRas, Inc., priority 2022, published 2026).

In assay [1] the test system is RKN cells (KRAS G12V). The assay is described as follows: 3D Cell viability assay in RKN cells (Biological Example 6). The class given is cell-based. To be noted: RKN (KRAS G12V) spheroids, 72 hours. Here is the method:
(§1) Biological Example 6: 3D Cell viability assay in AsPC-1, SW1900, HPAC, Capan-2, RKN, H358, HCT116, KP-2, H1573, A549, MKN1, and HT1080 cells
(§2) The inhibition of cellular viability as a result of test compound treatment in a spheroid assay was measured using the CellTiter-Glow 3D Cell Viability Assay (Promega).
(§3) On Day 1, 1000 cells per well were seeded in 150 μL of complete growth media supplemented with 10% fetal bovine serum (FBS) and incubated at 37° C., in the presence of 5% CO2 in 96-well ultra-low attachment microplates (Corning) for 48 hours undisturbed to allow spheroids to form.
(§4) Following spheroid formation, cells were treated with compounds diluted in DMSO at 0.25% final DMSO concentration. Compounds were dosed in a 9-point concentration curve with three-fold dilution between concentrations. Cells were incubated in the presence of compound for 72 hours at 37° C., in the presence of 5% CO2.
(§5) Following this incubation period, the kit-provided CTG reagent was allowed to equilibrate for 30 minutes at room temperature, 150 μL of equilibrated CTG reagent was added to each well, and the plate was sealed before shaking at 250 rpm for 10 minutes at room temperature to lyse the cells, 150 μL of lysate per well was transferred to a 96-well plate and luminescence was read on a CLARIOstar plate reader.
(§6) Data was imported into the Prism software package (Graphpad) and EC50 values were calculated using the log (inhibitor) vs, response—variable slope (Four parameters) model.

Another assay relates to AsPC-1 cells (KRAS G12D). The assay is described as follows: Cell-based pERK HTRF assay in AsPC-1 cells (Biological Example 5). Here is the method: (§7) Biological Example 5: Cell-based PERK HTRF assay in AsPC-1, SW1900, HPAC, Capan-2, RKN, H358, HCT116, KP-2, H1573, A549, MKN1, and HT1080 cells
(§8) The inhibition of ERK phosphorylation, as measured using the HTRF Advanced Phospho-ERK 1/2 (Thr202/Tyr204) Detection Assay kit (Perkin Elmer), was used to determine the effectiveness of test compounds in disrupting KRAS-driven protein/effector signaling in cells.
(§9) On day 1, cells were seeded into 96-well plates at 2.5×10^4 cells/well in 100 μL of complete growth media supplemented with 10% fetal bovine serum (FBS) and incubated at 37° C., in the presence of 5% CO2.
(§10) On day 2, cells were treated with compounds diluted in DMSO at 0.25% final DMSO concentration. Compounds were dosed in a 9-point concentration curve with three-fold dilution between concentrations. Cells were incubated in the presence of compound for two hours at 37° C. Following this treatment period, cells were harvested by aspirating the media, adding 40 μL of kit-supplied 1x lysis buffer per well, and shaking for 30 minutes at 250 rpm at room temperature.
(§11) Following cell lysis, samples were homogenized by pipetting up and down twenty times and 16 μL of cell lysate per well was transferred from the 96-well cell culture plate to two wells of a 384-well detection plate. A complete detection buffer was prepared by diluting D2 and Eu Cryptate antibodies 1:20 in kit-provided detection solution, 4 μL of complete detection buffer was then added to each well with lysate. Plates were incubated with gentle rocking for 24 hours at 4° C.
(§12) Following this incubation period, plates were centrifuged at 500×g for one minute and analyzed on a CLARIOstar plate reader. Data was imported into Microsoft Excel and the signal from the 665 nm channel was divided by the signal from the 620 nm channel. % pERK was calculated as: […]
(§13) Data was imported to the Prism software package (Graphpad) and EC50 values were calculated using the log (inhibitor) vs, response—variable slopc (Four parameters) model.
Background: In TR-FRET formats the signal depends on donor and acceptor labels being close together.

The subject of assay [2] is MKN1 cells (KRAS amplification). Put plainly: Cell-based pERK HTRF assay in MKN1 cells (Biological Example 5). How it is done: as §7, §8, §9, §10, §11, §12, §13
Assay [3] concerns RKN cells (KRAS G12V). Put plainly: Cell-based pERK HTRF assay in RKN cells (Biological Example 5). Here is the method: as §7, §8, §9, §10, §11, §12, §13
Assay [4] addresses T1, Avi-KRAS G12C (2-169) GTP/RAF1 RBD-3xFLAG (51-131) (Homo sapiens, UniProt P01116, G12C).
T1 construct: Avi-KRAS G12C (2-169)
Put plainly: Raf1-KRAS G12C-GTP disruption HTRF assay (Biological Example 3). It counts as binding. As to conditions: KRAS G12C, GTP-loaded. The method in brief: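 HTRF PPI read-out (ex 320 nm, em 615 nm) after 1 h RT incubation with shaking; data as % activity vs DMSO (100%), IC50 from curve fit. Complex 50 nM, RBD reagent 75 nM; compound 30-0.005 μM, 3-fold.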

Another assay deals with HT1080 cells (NRAS). Put plainly: 3D Cell viability assay in HT1080 cells (Biological Example 6). The class given is cell-based. As to conditions: Homo sapiens, HT-1080; HT1080 (NRAS) spheroids, 72 hours. Here is the method:
as §1, §2, §3, §4, §5, §6

[5] abbreviates: Homo sapiens, ASPC1, AsPC-1 (KRAS G12D) cells.
Setting [6] is: Homo sapiens, MKN-1, MKN cells (MKN1, KRAS amplification).
[7] abbreviates: MKN cells (MKN1, KRAS amplification).

Some results are limits rather than exact numbers.

T1 sequence (P01116 2-169 isoform P01116-2 G12C): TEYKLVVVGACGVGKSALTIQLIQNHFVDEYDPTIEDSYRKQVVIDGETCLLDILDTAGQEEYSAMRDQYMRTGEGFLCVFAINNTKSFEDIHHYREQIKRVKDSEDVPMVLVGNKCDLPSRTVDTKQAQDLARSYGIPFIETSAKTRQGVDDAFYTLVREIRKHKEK

The term IC50 denotes the concentration that gives 50% inhibition. The low end stands for greater potency, the high end for weaker potency. For the compound `CCN(c1nc(OC[C@@]23CCCN2C[C@H](F)C3)nc2c(F)c(-c3ccc(F)c4sc(N)c(C#N)c34)c(C(F)(F)F)cc12)[C@H]1CCN(C(=O)C2CC2)[C@@H]1C` (atropisomer, axis not shown) [Compound 579], the concentration for half-maximal inhibition (IC50) (with RKN cells (KRAS G12V) [1]; in the assay with AsPC-1 cells (KRAS G12D) (setting [5]); in assay [2] (setting [6]); in the assay on RKN cells (KRAS G12V) [3]) was no more than 100 nM in each case.
Take `CCN(c1nc(OC[C@@]23CCCN2C[C@H](F)C3)nc2c(F)c(-c3ccc(F)c4sc(N)c(C#N)c34)c(C(F)(F)F)cc12)[C@H]1CCN(C(=O)c2ncco2)C1` (atropisomer, axis not shown) [Compound 584]: the IC50 (with RKN cells (KRAS G12V) [1]; in the assay with AsPC-1 cells (KRAS G12D) (setting [5]); in assay [2] (setting [6]); in the assay with RKN cells (KRAS G12V) [3]) was no more than 100 nM throughout.
In the case of `CCN(c1nc(OC[C@@]23CCCN2C[C@H](F)C3)nc2c(F)c(-c3ccc(F)c4sc(N)c(C#N)c34)c(C(F)(F)F)cc12)[C@H]1C[C@@H](C)N(C(=O)C2COC2)C1` (atropisomer, axis not shown) [Compound 586], the IC50 (in the assay with RKN cells (KRAS G12V) [1]; in the assay on AsPC-1 cells (KRAS G12D) (setting [5]); in assay [2] (setting [6]); in the assay on RKN cells (KRAS G12V) [3]) was no more than 100 nM each time.
As for `CCN(c1nc(OC[C@@]23CCCN2C[C@H](F)C3)nc2c(F)c(-c3ccc(F)c4sc(N)c(C#N)c34)c(C(F)(F)F)cc12)[C@H]1CCN(C(=O)N2CC(F)C2)C1` (atropisomer, axis not shown) [Compound 606], the IC50 (in assay [4]; in the assay on RKN cells (KRAS G12V) [1]; in the assay with AsPC-1 cells (KRAS G12D) (setting [5]); in assay [2] (setting [6]); in the assay with RKN cells (KRAS G12V) [3]) was no more than 100 nM each time.
Take `CCN(c1nc(OC[C@@]23CCCN2C[C@H](F)C3)nc2c(F)c(-c3ccc(F)c4sc(N)c(C#N)c34)c(C(F)(F)F)cc12)[C@H]1C[C@H](C)N(C(=O)[C@@H]2CC2(F)F)C1` (atropisomer, axis not shown) [Compound 751]: the IC50 (in the assay on RKN cells (KRAS G12V) [1]; in assay [2] (setting [6]); in the assay on RKN cells (KRAS G12V) [3]) was no more than 100 nM throughout.
With `Cc1c(C(=O)N(C)C)nn2c1CN(c1nc(OC[C@@]34CCCN3C[C@H](F)C4)nc3c(F)c(-c4ccc(F)c5sc(N)c(C#N)c45)c(C(F)(F)F)cc13)CC2` (atropisomer, axis not shown; (aS)) [Compound 590, 5-((S)-7-(2-amino-3-cyano-7-fluorobenzo[b]thiophen-4-yl)-8-fluoro-2-(((2R,7aS)-2-fluorotetrahydro-1H-pyrrolizin-7a(5H)-yl)methoxy)-6-(trifluoromethyl)quinazolin-4-yl)-N,N,3-trimethyl-4,5,6,7-tetrahydropyrazolo[1,5-a]pyrazine-2-carboxamide], the IC50 (in the assay on RKN cells (KRAS G12V) [1]; with AsPC-1 cells (KRAS G12D) (AsPC-1 (KRAS G12D) cells); in assay [2] (setting [7]); in the assay on RKN cells (KRAS G12V) [3]) was no more than 100 nM throughout.
`N#Cc1c(N)sc2c(F)ccc(-c3c(C(F)(F)F)cc4c(N5CC6CC5CO6)nc(OC[C@@]56CCCN5C[C@H](F)C6)nc4c3F)c12` (stereo partly drawn) [Compound 147] yielded an IC50 in the assay with HT1080 cells (NRAS) greater than 1000 nM.
Consider `CCN(c1nc(OC[C@@]23CCCN2C[C@H](F)C3)nc2c(F)c(-c3ccc(F)c4sc(N)c(C#N)c34)c(C(F)(F)F)cc12)[C@H]1C[C@H](C)N(C(C)=O)C1` [Compound 463], for which the IC50 with AsPC-1 cells (KRAS G12D) (setting [5]) is 100 to 1000 nM; in the assay with HT1080 cells (NRAS) it was greater than 1000 nM; in assay [2] (setting [6]), no more than 100 nM.
On to `CCN(c1nc(OCC23CCCN2CC(F)C3)nc2c(F)c(-c3ccc(F)c4sc(N)c(C#N)c34)c(C(F)(F)F)cc12)C1CC(C)N(C(=O)C2CC2(F)F)C1` (stereo not drawn) [Compound 732], for which the IC50 in assay [4] was 100 to 1000 nM; with RKN cells (KRAS G12V) [1], no more than 100 nM; in assay [2] (setting [7]), no more than 100 nM; in the assay on RKN cells (KRAS G12V) [3], no more than 100 nM.
In the case of `CCN(c1nc(OCC23CCCN2CC(F)C3)nc2c(F)c(-c3ccc(F)c4sc(N)c(C#N)c34)c(C(F)(F)F)cc12)C1CC(C)N(C(=O)N2CC(F)C2)C1` (stereo not drawn) [Compound 759], the IC50 (with RKN cells (KRAS G12V) [1]; in the assay with AsPC-1 cells (KRAS G12D) (AsPC-1 (KRAS G12D) cells); in assay [2] (setting [7]); in the assay with RKN cells (KRAS G12V) [3]) was no more than 100 nM each time.
